Test results taken from patent publication US20250213448A1, “COMPOSITION FOR PROTECTING SKIN CONTAINING A THYMOL ESTER-BASED COMPOUND” (Amorepacific Corporation, priority 2024, published 2025).

Tested on: Normal human epidermal melanocytes
Test: Damage inhibition experiment using normal human melanocytes (UVB photoaging, real-time PCR gene expression)
Format: cell-based
Method: Melanocytes isolated from normal human skin (Normal human epidermal melanocytes) were treated with ultraviolet B (312 nm) at 20 mJ each, once a day, for two days, and cultured for one month. Melasolv was dissolved in DMSO at 1000×, irradiated with ultraviolet rays, and then immediately placed in a culture medium at 1 and 5 ppm and treated. The cells were grown in a 37° C., 5% CO2 incubator while changing the culture medium containing the experimental material every two days. After the experiment was completed, the cells were dissolved in TRIzol and collected, and total RNA was isolated. Then, cDNA was synthesized therefrom and real-time PCR was performed to compare the relative expression levels of each gene. The RNA was quantified and the same amount of RNA was added to each experimental group, and the expression of each gene was corrected by the expression of GAPDH, a house-keeping gene, to compare the relative expression levels.
The gene primers used were purchased from APPLIED BIOSYSTEMS as follows: […]

Compound: COc1cc(/C=C/C(=O)Oc2cc(C)ccc2C(C)C)cc(OC)c1OC [Melasolv, (5-methyl-2-propan-2-ylphenyl) (E)-3-(3,4,5-trimethoxyphenyl) prop-2-enoate]
- expression of the XPA gene (UVB-photoaged melanocytes, 5 ppm of Melasolv, compared with control group, FIG. 4): increased even higher than that of the control group
- expression of aging genes (p16, p21) (melanocytes irradiated with UVB (312 nm, 20 mJ, once a day for two days), cultured one month, Melasolv at 1 and 5 ppm, real-time PCR corrected by GAPDH, FIGS. 1 and 2): inhibited in a concentration-dependent manner
- expression of DNA repair genes (APEX1, XPA, RPA1) that had decreased due to photoaging (melanocytes irradiated with UVB (312 nm, 20 mJ, once a day for two days), cultured one month, Melasolv at 1 and 5 ppm, real-time PCR corrected by GAPDH, FIGS. 3 to 5): increased
